Assay [1] is described as follows: cells. It is filed as functional, cell-based. Particulars: Rattus norvegicus, L6, 72 h.
Description: DNDI: Cytotoxicity in Vitro, 72 hour, in rat skeletal myoblast cells
The subject of a further assay is Plasmodium falciparum. The assay is described as follows: microbe, parasite or virus in culture. Type of assay: functional, organism-based, K1.
The test system of the next assay is Trypanosoma cruzi. The assay is described as follows: microbe, parasite or virus in culture. It is filed as functional, organism-based, Tulahuen C4 (LacZ).
In assay [2] the test system is Trypanosoma brucei rhodesiense. The assay is described as follows: microbe, parasite or virus in culture. Type of assay: functional, organism-based, STIB 900.
Description: DNDI: HAT in Vitro, 72 hour
Assay [3] concerns Leishmania donovani. Kind of assay: microbe, parasite or virus in culture. It is filed as functional, organism-based, MHOM/ET/67/L82.
Description: DNDI: Leish (axenic) in Vitro, 72 hour
Assay [4] can be described thus: cells. Type of assay: functional, cell-based. Conditions: Mus musculus, NMRI, BalbC or CD1 mice, Macrophage, 96 h.
Description: DNDI: Cytotoxicity in Vitro, 96 hour, in mouse macrophages (infected-amastigotes)
Assay [5] relates to Leishmania donovani. Kind of assay: microbe, parasite or virus in culture. Type of assay: functional, organism-based, MHOM/ET/67/L82. This is another data set of the same source.
Description: DNDI: Leish (macro) in Vitro, 96 hour
Where [6] appears, read: Plasmodium falciparum, K1, 72 h.
Where [7] appears, read: Trypanosoma cruzi, Tulahuen C4 (LacZ), 96 h.
The mark [8] stands for this setting: Trypanosoma brucei, STIB 900, 72 h.
Setting [9] is: Leishmania donovani, MHOM/ET/67/L82, 72 h.
Setting [10] is: Leishmania donovani, MHOM/ET/67/L82, 96 h.

Description for Plasmodium falciparum: DNDI: Malaria in Vitro, 72 hour
Description for Trypanosoma cruzi: DNDI: Chagas in Vitro, 96 hour

`OCCN(CCO)c1nc(N2CCCCC2)c2nc(N(CCO)CCO)nc(N3CCCCC3)c2n1` [DIPYRIDAMOLE]: the 50% inhibitory concentration (IC50) (in general, the concentration that gives 50% inhibition) in the assay “cells [1]” was 38.6 µM; with Plasmodium falciparum (setting [6]), 1.3 µM; in the assay with Trypanosoma cruzi (setting [7]), 29.3 µM; in assay [2] (setting [8]) it was 7.45 µM; in the assay on Leishmania donovani [3] (setting [9]), 62 µM; in the assay “cells [4]”, more than 59.5 µM. Moreover, the IC50 with Leishmania donovani [5] (setting [10]) is more than 59.5 µM.

Regarding `CO[C@H]1/C=C/O[C@@]2(C)Oc3c(C)c(O)c4c(O)c(c(/C=N/N5CCN(C)CC5)c(O)c4c3C2=O)NC(=O)/C(C)=C\C=C\[C@H](C)[C@H](O)[C@@H](C)[C@@H](O)[C@H](C)[C@H](OC(C)=O)[C@H]1C`, the IC50 is 75.2 µM in “cells [1]”; 0.1 µM in the assay with Plasmodium falciparum (setting [6]); more than 109 µM in the assay with Trypanosoma cruzi (setting [7]); 16.7 µM in assay [2] (setting [8]); 1.53 µM with Leishmania donovani [3] (setting [9]); more than 36.5 µM in the assay “cells [4]”. The IC50 with Leishmania donovani [5] (setting [10]) was more than 36.5 µM.

On to `CC(C)(C)NC(=O)[C@@H]1CC2CCCCC2CN1C[C@@H](O)[C@H](Cc1ccccc1)NC(=O)[C@H](CC(N)=O)NC(=O)c1ccc2ccccc2n1` (some centres undefined), for which the IC50 was 18.2 µM in the assay “cells [1]”; 11.9 µM with Plasmodium falciparum (setting [6]); 17.1 µM in the assay with Trypanosoma cruzi (setting [7]); 12.3 µM in assay [2] (setting [8]); 77.4 µM in the assay on Leishmania donovani [3] (setting [9]); more than 44.7 µM in the assay “cells [4]”. Besides, in the assay with Leishmania donovani [5] (setting [10]), the IC50 was more than 44.7 µM.

As to `CNCCC=C1c2ccccc2CCc2ccccc21` [NORTRIPTYLINE], the IC50 was 27.9 µM in “cells [1]”; 0.58 µM in the assay with Plasmodium falciparum (setting [6]); 22.9 µM with Trypanosoma cruzi (setting [7]); 1.17 µM in assay [2] (setting [8]); more than 342 µM in the assay with Leishmania donovani [3] (setting [9]); 38 µM in the assay “cells [4]”. In the assay on Leishmania donovani [5] (setting [10]), the IC50 was more than 11.4 µM.

Take `COc1cc(C)c2c(Oc3cccc(C(F)(F)F)c3)c(OC)cc(N[C@H](C)CCCN)c2n1`: the IC50 came to 5.52 µM in “cells [1]”; 0.27 µM in the assay with Plasmodium falciparum (setting [6]); 6.11 µM with Trypanosoma cruzi (setting [7]); 1.42 µM in assay [2] (setting [8]); 17.9 µM in the assay on Leishmania donovani [3] (setting [9]); 6.47 µM in the assay “cells [4]”. The compound also showed an IC50 in the assay with Leishmania donovani [5] (setting [10]) of more than 2.16 µM.

With `CC(=O)[C@H]1CC[C@@H]2[C@@H]3CC[C@@H]4C[C@](C)(O)CC[C@]4(C)[C@H]3CC[C@@]12C`, the IC50 was 23.5 µM in the assay “cells [1]”; more than 15 µM in the assay on Plasmodium falciparum (setting [6]); 65 µM in the assay on Trypanosoma cruzi (setting [7]); 5.47 µM in assay [2] (setting [8]); 42.5 µM with Leishmania donovani [3] (setting [9]); more than 90.2 µM in the assay “cells [4]”. Also, the IC50 in the assay with Leishmania donovani [5] (setting [10]) is more than 30.1 µM.

As to `O=C(O)c1cn(C2CC2)c2cc(N3CCNCC3)c(F)cc2c1=O` [CIPROFLOXACIN], the IC50 in the assay “cells [1]” is 118 µM; with Plasmodium falciparum (setting [6]) it was 13.2 µM; in the assay with Trypanosoma cruzi (setting [7]), 92 µM; in assay [2] (setting [8]), 35.9 µM; in the assay with Leishmania donovani [3] (setting [9]), more than 302 µM; in “cells [4]”, more than 90.5 µM. For the same compound, the IC50 with Leishmania donovani [5] (setting [10]) was more than 90.5 µM.

In the case of `CN(C)CCCN1c2ccccc2Sc2ccccc21` [PROMAZINE], the IC50 is 30.1 µM in “cells [1]”; 0.49 µM in the assay with Plasmodium falciparum (setting [6]); 49.1 µM in the assay on Trypanosoma cruzi (setting [7]); 2.16 µM in assay [2] (setting [8]); more than 316 µM in the assay with Leishmania donovani [3] (setting [9]); more than 35.2 µM in the assay “cells [4]”. Moreover, in the assay on Leishmania donovani [5] (setting [10]), the IC50 was more than 35.2 µM.

For `CC[C@@H]1OC(=O)[C@@H](C)[C@H](O[C@H]2C[C@@](C)(OC)[C@@H](O)[C@H](C)O2)[C@@H](C)[C@H](O[C@H]2O[C@@H](C)C[C@@H](N(C)C)[C@@H]2O)[C@@](C)(O)C[C@H](C)C(=O)[C@@H](C)[C@H](O)[C@@]1(C)O`, the IC50 in “cells [1]” was 92.2 µM; with Plasmodium falciparum (setting [6]), 9.91 µM; in the assay on Trypanosoma cruzi (setting [7]), 114 µM; in assay [2] (setting [8]), 72.1 µM; in the assay with Leishmania donovani [3] (setting [9]) it was more than 133 µM; in the assay “cells [4]”, more than 39.9 µM. The compound also displayed an IC50 in the assay on Leishmania donovani [5] (setting [10]) of more than 39.9 µM.

Regarding `Cc1c(C)c2c(c(C)c1O)CCC(C)(COc1ccc(CC3SC(=O)NC3=O)cc1)O2` (centres undefined) [TROGLITAZONE], the IC50 is 80.6 µM in the assay “cells [1]”; 7.27 µM in the assay on Plasmodium falciparum (setting [6]); 32.6 µM with Trypanosoma cruzi (setting [7]); 59.3 µM in assay [2] (setting [8]); 4.26 µM with Leishmania donovani [3] (setting [9]); more than 67.9 µM in the assay “cells [4]”. In addition, the IC50 with Leishmania donovani [5] (setting [10]) is more than 67.9 µM.

For the compound `C[C@H]1c2cccc(O)c2C(O)=C2C(=O)[C@]3(O)C(=O)/C(=C(/N)O)C(=O)[C@@H](N(C)C)[C@@H]3[C@@H](O)[C@@H]21`, the IC50 was found to be 14.5 µM in “cells [1]”; 4.48 µM in the assay on Plasmodium falciparum (setting [6]); 39.1 µM with Trypanosoma cruzi (setting [7]); 63.7 µM in assay [2] (setting [8]); 24.1 µM in the assay with Leishmania donovani [3] (setting [9]); 67.5 µM in the assay “cells [4]”. The compound further registered an IC50 in the assay with Leishmania donovani [5] (setting [10]) of more than 22.5 µM.

With `Cc1c(O)cccc1C(=O)N[C@@H](CSc1ccccc1)[C@H](O)CN1C[C@H]2CCCC[C@H]2C[C@H]1C(=O)NC(C)(C)C`, the IC50 in “cells [1]” is 12.1 µM; with Plasmodium falciparum (setting [6]), 10.4 µM; in the assay with Trypanosoma cruzi (setting [7]) it was 10.2 µM; in assay [2] (setting [8]), 20.6 µM; with Leishmania donovani [3] (setting [9]), 9.62 µM; in the assay “cells [4]”, more than 52.8 µM. This compound also registered an IC50 with Leishmania donovani [5] (setting [10]) of 20.2 µM.

Turning to `CN1CCN(CCCN2c3ccccc3Sc3ccc(C(F)(F)F)cc32)CC1` [TRIFLUOPERAZINE], the IC50 worked out at 11 µM in “cells [1]”; 1.48 µM in the assay with Plasmodium falciparum (setting [6]); 10.1 µM in the assay with Trypanosoma cruzi (setting [7]); 1.23 µM in assay [2] (setting [8]); 52.9 µM in the assay on Leishmania donovani [3] (setting [9]); 24.5 µM in “cells [4]”. For the same compound, the IC50 in the assay with Leishmania donovani [5] (setting [10]) was more than 7.36 µM.

On to `O[C@@H](c1cc(C(F)(F)F)nc2c(C(F)(F)F)cccc12)[C@H]1CCCCN1` [(S,R)-MEFLOQUINE], for which the IC50 in “cells [1]” is 3.25 µM; with Plasmodium falciparum (setting [6]) it was 0.0024 µM; with Trypanosoma cruzi (setting [7]), 4.48 µM; in assay [2] (setting [8]), 0.53 µM; with Leishmania donovani [3] (setting [9]), 38.6 µM; in the assay “cells [4]”, 7.23 µM. For the same compound, the IC50 with Leishmania donovani [5] (setting [10]) was 2.41 µM.

On to `NC(=O)c1cccnc1` [NIACINAMIDE], for which the IC50 in “cells [1]” was more than 737 µM; in the assay with Plasmodium falciparum (setting [6]) it was more than 40.9 µM; with Trypanosoma cruzi (setting [7]), more than 737 µM; in assay [2] (setting [8]) it was more than 737 µM; in the assay with Leishmania donovani [3] (setting [9]) it was more than 737 µM; in “cells [4]”, more than 246 µM. For the same compound, the IC50 with Leishmania donovani [5] (setting [10]) was more than 246 µM.

For AURANOFIN, the 50% inhibitory concentration (IC50) was 1.67 µM in the assay on Plasmodium falciparum; 2.27 µM with Trypanosoma cruzi; 0.01 µM in assay [2]; 0.11 µM in the assay on Leishmania donovani [3]; more than 1.47 µM in the assay on Leishmania donovani [5].

In the case of `C#C[C@]1(O)CC[C@H]2[C@@H]3CCC4=Cc5oncc5C[C@]4(C)[C@H]3CC[C@@]21C` [DANAZOL], the IC50 is 32 µM in “cells [1]”; 14.1 µM in the assay with Plasmodium falciparum (setting [6]); 6.25 µM in the assay on Trypanosoma cruzi (setting [7]); 45.9 µM in assay [2] (setting [8]); 10.2 µM with Leishmania donovani [3] (setting [9]); more than 29.6 µM in “cells [4]”. The compound also came in with an IC50 in the assay with Leishmania donovani [5] (setting [10]) of more than 29.6 µM.

With `CC(C)c1nc(CN(C)C(=O)N[C@H](C(=O)N[C@@H](Cc2ccccc2)C[C@H](O)[C@H](Cc2ccccc2)NC(=O)OCc2cncs2)C(C)C)cs1` [RITONAVIR], the IC50 was 16.2 µM with Plasmodium falciparum (setting [6]); 20.7 µM in the assay on Trypanosoma cruzi (setting [7]); 4.3 µM in assay [2] (setting [8]); 8.97 µM with Leishmania donovani [3] (setting [9]); more than 41.6 µM in the assay on Leishmania donovani [5] (setting [10]).

For `C[C@@H](Cc1cccc(C(F)(F)F)c1)NCCOC(=O)c1ccccc1`, the IC50 in the assay “cells [1]” was 49.1 µM; in the assay with Plasmodium falciparum (setting [6]), 6.52 µM; in the assay with Trypanosoma cruzi (setting [7]), 73.7 µM; in assay [2] (setting [8]) it was 21.1 µM; in “cells [4]”, more than 85.4 µM; in the assay with Leishmania donovani [5] (setting [10]), 54.4 µM.

On to `CN(C)CCC=C1c2ccccc2CCc2ccccc21` [AMITRIPTYLINE], for which the IC50 in the assay “cells [1]” was 42.2 µM; in the assay on Plasmodium falciparum (setting [6]), 1.16 µM; with Trypanosoma cruzi (setting [7]), 35.1 µM; in assay [2] (setting [8]), 3.03 µM; in “cells [4]”, 36.1 µM; in the assay on Leishmania donovani [5] (setting [10]) it was more than 10.8 µM.

(Values after ChEMBL document CHEMBL3392926, “Antiprotozoal Activity Profiling of Approved Drugs: A Starting Point toward Drug Repositioning”.)
